{"source": "ChEMBL document CHEMBL2321853", "about": "“Novel acylethanolamide derivatives that modulate body weight through enhancement of hypothalamic pro-opiomelanocortin (POMC) and/or decreased neuropeptide Y (NPY)” (J Med Chem, 2013)", "key": {"Mus musculus [1]": {"system": "Mus musculus", "assay": "Antiobesity activity in C57BL/6 mouse assessed as change in glucose level in blood at 5 mg/kg, ip administered on day 1, 4, 5, 7, 17, 15, 19 measured on day 15 relative to control", "type": "functional", "conditions": "route intraperitoneal"}, "Mus musculus [2]": {"system": "Mus musculus", "assay": "Antiobesity activity in high fat diet fed C57BL/6 mouse assessed as reduction in body weight at 1 mg/kg, ip administered on day 3, 6, 8, 9, 10 measured on day 7 relative to control", "type": "functional", "parameters": "scale not given: the % may be the effect or the level left", "conditions": "route intraperitoneal"}, "Mus musculus [3]": {"system": "Mus musculus", "assay": "Enhancement of motor activity in Sabra mouse at 10 mg/kg, ip administered on day 6 to 10 by open field test relative to control", "type": "functional", "conditions": "route intraperitoneal"}, "Mus musculus [4]": {"system": "Mus musculus", "assay": "Antiobesity activity in Sabra mouse assessed as change in body weight at 1 mg/kg, ip administered on day 8, 12 and 43 measured on day 36 relative to control", "type": "functional", "conditions": "route intraperitoneal"}, "Hypothalamus [5]": {"system": "Hypothalamus", "assay": "Effect on POMC gene expression in Sabra mouse hypothalamus assessed as increase in mRNA level at 1 mg/kg, ip administered on day 6 to 10 measured on day 16 by RT-PCR analysis relative to control", "type": "functional", "conditions": "route intraperitoneal"}, "Mus musculus [6]": {"system": "Mus musculus", "assay": "Antiobesity activity in Sabra mouse assessed as change in body weight at 1 mg/kg, ip administered on day 8, 9, 10, 11, 14, 18, 24 and 32 measured on day 9 relative to control", "type": "functional", "conditions": "route intraperitoneal"}, "Mus musculus [7]": {"system": "Mus musculus", "assay": "Antiobesity activity in Sabra mouse assessed as change in food consumption at 1 mg/kg, ip administered on day 8, 9, 10, 11, 14, 18, 24 and 32 measured after 3 weeks relative to control", "type": "functional", "conditions": "route intraperitoneal"}, "Hypothalamus [8]": {"system": "Hypothalamus", "assay": "Effect on 5HT1A gene expression in Sabra mouse hypothalamus assessed as change in mRNA level at 1 mg/kg, ip administered on day 8, 9, 10, 11, 14, 18, 24 and 32 by RT-PCR analysis relative to GAPDH", "type": "functional", "conditions": "route intraperitoneal"}, "Mus musculus [9]": {"system": "Mus musculus", "assay": "Antiobesity activity in high fat diet fed C57BL/6 mouse assessed as reduction food consumption at 1 mg/kg, ip administered on day 3, 6, 8, 9, 10 measured after week 2 relative to control", "type": "functional", "parameters": "scale not given: the % may be the effect or the level left", "conditions": "route intraperitoneal"}, "Mus musculus [10]": {"system": "Mus musculus", "assay": "Antiobesity activity in C57BL/6 mouse assessed as change in glucose level in blood at 5 mg/kg, ip administered on day 1, 4, 5, 7, 17, 15, 19 measured on day 5 relative to control", "type": "functional", "conditions": "route intraperitoneal"}, "Mus musculus [11]": {"system": "Mus musculus", "assay": "Enhancement of cognitive function in Sabra mouse at 1 mg/kg, ip measured on day 8 to 12 by eight-arm maze test", "type": "functional, organism-based", "parameters": "dose 1 mg/kg"}, "Mus musculus [12]": {"system": "Mus musculus", "assay": "Enhancement of cognitive function in Sabra mouse at 1 mg/kg, ip administered on day 8, 12 and 43 by eight-arm maze test", "type": "functional, organism-based", "parameters": "dose 1 mg/kg"}, "Mus musculus [13]": {"system": "Mus musculus", "assay": "Antiobesity activity in Sabra mouse assessed as reduction in body weight at 1 mg/kg, ip administered on day 0, 10, 11, 12, 24, 29 measured on day 19 relative to control", "type": "functional", "parameters": "scale not given: the % may be the effect or the level left", "conditions": "route intraperitoneal"}, "Mus musculus [14]": {"system": "Mus musculus", "assay": "Antiobesity activity in C57BL/6 mouse assessed as weight loss at 5 mg/kg, ip administered on day 1, 4, 5, 7, 17, 15, 19 measured on day 9 relative to control", "type": "functional", "conditions": "route intraperitoneal"}, "Mus musculus [15]": {"system": "Mus musculus", "assay": "Toxicity in Sabra mouse assessed as morphological changes in glial cells at 1 mg/kg, ip administered on day 8, 9, 10, 11, 14, 18, 24 and 32 by hematoxylin and eosin staining-based histopathological analysis", "type": "organism-based", "parameters": "dose 1 mg/kg, route intraperitoneal", "conditions": "in vivo"}, "Mus musculus [16]": {"system": "Mus musculus", "assay": "Antiobesity activity in C57BL/6 mouse assessed as weight loss at 5 mg/kg, ip administered on day 1, 4, 5, 7, 17, 15, 19 measured on day 15 relative to control", "type": "functional", "conditions": "route intraperitoneal"}, "Mus musculus [17]": {"system": "Mus musculus", "assay": "Antiobesity activity in Sabra mouse assessed as reduction in body weight at 1 mg/kg, ip administered on day 0, 10, 11, 12, 24, 29 measured on day 29 relative to control", "type": "functional", "parameters": "scale not given: the % may be the effect or the level left", "conditions": "route intraperitoneal"}, "Mus musculus [18]": {"system": "Mus musculus", "assay": "Antiobesity activity in Sabra mouse assessed as reduction in body weight at 1 mg/kg, ip administered on day 0, 10, 11, 12, 24, 29 measured on day 39 relative to control", "type": "functional", "parameters": "scale not given: the % may be the effect or the level left", "conditions": "route intraperitoneal"}, "Hypothalamus [19]": {"system": "Hypothalamus", "assay": "Effect on CART gene expression in Sabra mouse hypothalamus assessed as change in mRNA level at 1 mg/kg, ip administered on day 8, 9, 10, 11, 14, 18, 24 and 32 by RT-PCR analysis relative to GAPDH", "type": "functional", "conditions": "route intraperitoneal"}, "Mus musculus [20]": {"system": "Mus musculus", "assay": "Antiobesity activity in Sabra mouse assessed as change in body weight at 1 mg/kg, ip administered on day 8, 9, 10, 11, 14, 18, 24 and 32 measured on day 35 relative to control", "type": "functional", "conditions": "route intraperitoneal"}, "Hypothalamus [21]": {"system": "Hypothalamus", "assay": "Effect on CAMKK2 gene expression in Sabra mouse hypothalamus assessed as change in mRNA level at 1 mg/kg, ip administered on day 8, 9, 10, 11, 14, 18, 24 and 32 by RT-PCR analysis relative to GAPDH", "type": "functional", "conditions": "route intraperitoneal"}, "Mus musculus [22]": {"system": "Mus musculus", "assay": "Enhancement of cognitive function in Sabra mouse at 10 mg/kg, ip administered on day 6 to 10 by eight-arm maze test relative to control", "type": "functional, organism-based", "parameters": "dose 10 mg/kg"}, "Mus musculus [23]": {"system": "Mus musculus", "assay": "Antiobesity activity in Sabra mouse assessed as change in body weight at 1 mg/kg, ip administered on day 8, 12 and 43 measured on day 71 relative to control", "type": "functional", "conditions": "route intraperitoneal"}, "Mus musculus [24]": {"system": "Mus musculus", "assay": "Antiobesity activity in high fat diet fed C57BL/6 mouse assessed as reduction food consumption at 1 mg/kg, ip administered on day 3, 6, 8, 9, 10 measured after week 1 relative to control", "type": "functional", "parameters": "scale not given: the % may be the effect or the level left", "conditions": "route intraperitoneal"}, "Hypothalamus [25]": {"system": "Hypothalamus", "assay": "Effect on POMC gene expression in ip dosed Sabra mouse hypothalamus assessed as increase in mRNA level administered on day 6 to 10 measured on day 16 by RT-PCR analysis relative to control", "type": "functional, organism-based"}, "Mus musculus [26]": {"system": "Mus musculus", "assay": "Antiobesity activity in C57BL/6 mouse assessed as change in triglyceride level at 5 mg/kg, ip measured on day 36 (reference value: 0.92 mg/dL)", "type": "functional", "conditions": "route intraperitoneal"}, "Mus musculus [27]": {"system": "Mus musculus", "assay": "Antiobesity activity in Sabra mouse assessed as change in body weight at 1 mg/kg, ip administered on day 8, 9, 10, 11, 14, 18, 24 and 32 measured on day 39 relative to control", "type": "functional", "conditions": "route intraperitoneal"}, "Mus musculus [28]": {"system": "Mus musculus", "assay": "Antiobesity activity in Sabra mouse assessed as change in body weight at 1 mg/kg, ip administered on day 8, 12 and 43 measured on day 15 relative to control", "type": "functional", "conditions": "route intraperitoneal"}, "Mus musculus [29]": {"system": "Mus musculus", "assay": "Enhancement of motor activity in Sabra mouse at 1 mg/kg, ip administered on day 6 to 10 by open field test relative to control", "type": "functional", "conditions": "route intraperitoneal"}, "Mus musculus [30]": {"system": "Mus musculus", "assay": "Hepatotoxicity in Sabra mouse assessed as inflammatory changes at 1 mg/kg, ip administered on day 8, 9, 10, 11, 14, 18, 24 and 32 by hematoxylin and eosin staining-based histopathological analysis", "type": "toxicity, organism-based", "parameters": "dose 1 mg/kg, route intraperitoneal", "conditions": "in vivo"}, "Mus musculus [31]": {"system": "Mus musculus", "assay": "Antiobesity activity in Sabra mouse assessed as change in body weight at 1 mg/kg, ip administered on day 8, 12 and 43 measured on day 29 relative to control", "type": "functional", "conditions": "route intraperitoneal"}, "Hypothalamus [32]": {"system": "Hypothalamus", "assay": "Effect on POMC gene expression in Sabra mouse hypothalamus assessed as increase in mRNA level at 10 mg/kg, ip administered on day 6 to 10 measured on day 16 by RT-PCR analysis relative to control", "type": "functional", "conditions": "route intraperitoneal"}}, "note": "Activity calls are given as the source filed them. No cut-off for these calls is given here."}
{"smiles": "CCCCCCCC/C=C\\CCCCCCCC(=O)N[C@H](CO)C(C)C", "values": [{"measurement": "Activity", "setting": "Mus musculus [1]", "value": -16.3, "unit": "%"}, {"measurement": "Activity", "setting": "Mus musculus [2]", "value": -3.2, "unit": "%"}, {"measurement": "Activity", "setting": "Mus musculus [3]", "value": 30, "unit": "%"}, {"measurement": "Activity", "setting": "Mus musculus [4]", "value": -6.9, "unit": "%"}, {"measurement": "Activity", "setting": "Hypothalamus [5]", "value": 50, "unit": "%"}, {"measurement": "Activity", "setting": "Mus musculus [6]", "value": -2.2, "unit": "%"}, {"measurement": "Activity", "setting": "Mus musculus [7]", "value": 91.2, "unit": "%"}, {"measurement": "Activity", "setting": "Hypothalamus [8]", "value": -20, "unit": "%"}, {"measurement": "Activity", "setting": "Mus musculus [9]", "value": 45, "unit": "%"}, {"measurement": "Activity", "setting": "Mus musculus [10]", "value": -5.7, "unit": "%"}, {"measurement": "Activity", "setting": "Mus musculus [11]", "value": "Active"}, {"measurement": "Activity", "setting": "Mus musculus [12]", "value": "Active"}, {"measurement": "Activity", "setting": "Mus musculus [13]", "value": -1.85, "unit": "%"}, {"measurement": "Activity", "setting": "Mus musculus [14]", "value": -3, "unit": "%"}, {"measurement": "Activity", "setting": "Mus musculus [15]", "value": "Non-toxic"}, {"measurement": "Activity", "setting": "Mus musculus [16]", "value": -4.7, "unit": "%"}, {"measurement": "Activity", "setting": "Mus musculus [17]", "value": -5.98, "unit": "%"}, {"measurement": "Activity", "setting": "Mus musculus [18]", "value": -7.31, "unit": "%"}, {"measurement": "Activity", "setting": "Hypothalamus [19]", "value": 15, "unit": "%"}, {"measurement": "Activity", "setting": "Mus musculus [20]", "value": -6.2, "unit": "%"}, {"measurement": "Activity", "setting": "Hypothalamus [21]", "value": -18, "unit": "%"}, {"measurement": "Activity", "setting": "Mus musculus [22]", "value": "inactive"}, {"measurement": "Activity", "setting": "Mus musculus [23]", "value": -11.4, "unit": "%"}, {"measurement": "Activity", "setting": "Mus musculus [24]", "value": 22, "unit": "%"}, {"measurement": "Activity", "setting": "Hypothalamus [25]", "value": "Dose-dependent effect"}, {"measurement": "Activity", "setting": "Mus musculus [26]", "value": 1.017, "unit": "mg/dL"}, {"measurement": "Activity", "setting": "Mus musculus [27]", "value": -6.4, "unit": "%"}, {"measurement": "Activity", "setting": "Mus musculus [28]", "value": -2.2, "unit": "%"}, {"measurement": "Activity", "setting": "Mus musculus [29]", "value": 20, "unit": "%"}, {"measurement": "Activity", "setting": "Mus musculus [30]", "value": "Non-toxic"}, {"measurement": "Activity", "setting": "Mus musculus [31]", "value": -4.9, "unit": "%"}, {"measurement": "Activity", "setting": "Hypothalamus [32]", "value": 90, "unit": "%"}]}
